Laboratory results taken from ChEMBL document CHEMBL5696442, “Discovery of type II inhibitors of TGFβ-activated kinase 1 (TAK1) and mitogen-activated protein kinase kinase kinase kinase 2 (MAP4K2)” (J Med Chem, 2015).
Active and inactive are the calls of the source. The rule behind the calls is not given here.

How the values were obtained:
[1] = target: Calcium/calmodulin-dependent protein kinase type II subunit delta (Homo sapiens) (UniProt Q13557); assay: Inhibition of CAMK2D (unknown origin) at 10 uM by Ambit Kinomescan binding assay
[2] = target: Casein kinase I isoform alpha-like (Homo sapiens) (UniProt Q8N752); assay: Inhibition of CSNK1A1L (unknown origin) at 10 uM by Ambit Kinomescan binding assay
[3] = target: Mitogen-activated protein kinase kinase kinase 10 (Homo sapiens) (UniProt Q02779); assay: Inhibition of MLK2 (unknown origin) at 10 uM by Ambit Kinomescan binding assay
[4] = target: Serine/threonine-protein kinase ULK2 (Homo sapiens) (UniProt Q8IYT8); assay: Inhibition of ULK2 (unknown origin) at 10 uM by Ambit Kinomescan binding assay
[5] = target: T1, Mitogen-activated protein kinase kinase kinase kinase 2 (Homo sapiens) (UniProt Q12851); assay: Inhibition of MAP4K2 (GCK) Lys1 labeling site in human A-375 cells at 0.5 uM by KiNativ Profiling analysis relative to control; assay type: cell-based
T1 sequence (whole entry): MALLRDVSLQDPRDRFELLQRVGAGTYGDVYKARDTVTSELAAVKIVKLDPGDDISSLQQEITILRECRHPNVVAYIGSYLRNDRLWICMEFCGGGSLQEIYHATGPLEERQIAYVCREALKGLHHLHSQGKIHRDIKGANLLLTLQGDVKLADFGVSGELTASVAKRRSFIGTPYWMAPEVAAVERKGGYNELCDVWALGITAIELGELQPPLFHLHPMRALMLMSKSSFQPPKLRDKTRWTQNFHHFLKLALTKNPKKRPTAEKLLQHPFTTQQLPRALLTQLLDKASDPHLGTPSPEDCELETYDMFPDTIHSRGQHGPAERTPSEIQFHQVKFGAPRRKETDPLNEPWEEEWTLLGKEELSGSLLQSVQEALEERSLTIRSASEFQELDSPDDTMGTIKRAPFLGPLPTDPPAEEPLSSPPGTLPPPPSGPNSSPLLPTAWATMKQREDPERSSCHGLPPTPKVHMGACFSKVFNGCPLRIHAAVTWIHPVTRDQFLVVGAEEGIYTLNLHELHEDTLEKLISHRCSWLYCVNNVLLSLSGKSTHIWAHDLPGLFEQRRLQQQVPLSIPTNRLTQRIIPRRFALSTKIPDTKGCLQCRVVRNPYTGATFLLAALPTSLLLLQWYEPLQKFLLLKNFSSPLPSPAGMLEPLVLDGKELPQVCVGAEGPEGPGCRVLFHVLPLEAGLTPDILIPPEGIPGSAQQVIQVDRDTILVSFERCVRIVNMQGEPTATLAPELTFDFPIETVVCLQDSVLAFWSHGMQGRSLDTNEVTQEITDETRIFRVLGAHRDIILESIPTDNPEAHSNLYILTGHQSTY

[6] = target: Tyrosine-protein kinase JAK1 (Homo sapiens) (UniProt P23458); assay: Inhibition of JAK1 domain2 Lys1 labeling site in human A-375 cells at 0.05 uM by KiNativ Profiling analysis relative to control; assay type: cell-based
[7] = target: Interferon-induced, double-stranded RNA-activated protein kinase (Homo sapiens) (UniProt P19525); assay: Inhibition of PKR Lys2 labeling site in human A-375 cells at 0.05 uM by KiNativ Profiling analysis relative to control; assay type: cell-based
[8] = target: Interferon-induced, double-stranded RNA-activated protein kinase (Homo sapiens) (UniProt P19525); assay: Inhibition of PKR ACT labeling site in human Huh-7 cells at 10 uM by KiNativ Profiling analysis relative to control; assay type: cell-based
[9] = target: Calcium/calmodulin-dependent protein kinase type II subunit gamma (Homo sapiens) (UniProt Q13555); assay: Inhibition of CAMK2g K1 labeling site harbouring KTSTQEYAAKIINTK in human Huh-7 cells at 1 uM by KiNativ Profiling analysis relative to control; assay type: cell-based
[10] = target: Muscle, skeletal receptor tyrosine-protein kinase (Homo sapiens) (UniProt O15146); assay: Inhibition of MUSK (unknown origin) at 10 uM by Ambit Kinomescan binding assay relative to control; values are per cent of control
[11] = target: T2, Serine/threonine-protein kinase STK11 (Homo sapiens) (UniProt Q15831); assay: Inhibition of LKB1 Lys2 labeling site in human A-375 cells at 5 uM by KiNativ Profiling analysis relative to control; assay type: cell-based
T2 sequence (whole entry): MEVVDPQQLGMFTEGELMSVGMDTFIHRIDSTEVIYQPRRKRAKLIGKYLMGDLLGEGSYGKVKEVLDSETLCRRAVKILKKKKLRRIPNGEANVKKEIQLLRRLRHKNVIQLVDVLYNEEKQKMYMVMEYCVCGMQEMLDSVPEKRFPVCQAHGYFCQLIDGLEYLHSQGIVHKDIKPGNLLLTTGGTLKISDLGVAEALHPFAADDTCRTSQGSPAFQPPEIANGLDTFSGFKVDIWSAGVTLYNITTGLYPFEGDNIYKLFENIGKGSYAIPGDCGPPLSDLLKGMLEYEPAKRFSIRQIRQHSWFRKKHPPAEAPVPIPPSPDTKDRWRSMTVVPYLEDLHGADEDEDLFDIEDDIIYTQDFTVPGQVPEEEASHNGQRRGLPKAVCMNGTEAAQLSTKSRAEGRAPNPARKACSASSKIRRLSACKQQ

[12] = target: eIF-2-alpha kinase GCN2 (Homo sapiens) (UniProt Q9P2K8); assay: Inhibition of GCN2 domain2 Lys2 labeling site in human A-375 cells at 0.05 uM by KiNativ Profiling analysis relative to control; assay type: cell-based
[13] = target: T3, Phosphatidylinositol 5-phosphate 4-kinase type-2 beta (Homo sapiens) (UniProt P78356); assay: Inhibition of PIP4K2B ATP labeling site harbouring TVKHGAGAEISTVNPEQYSK in human Huh-7 cell lysate at 1 uM by KiNativ Profiling analysis relative to control; assay type: subcellular
T3 sequence (whole entry): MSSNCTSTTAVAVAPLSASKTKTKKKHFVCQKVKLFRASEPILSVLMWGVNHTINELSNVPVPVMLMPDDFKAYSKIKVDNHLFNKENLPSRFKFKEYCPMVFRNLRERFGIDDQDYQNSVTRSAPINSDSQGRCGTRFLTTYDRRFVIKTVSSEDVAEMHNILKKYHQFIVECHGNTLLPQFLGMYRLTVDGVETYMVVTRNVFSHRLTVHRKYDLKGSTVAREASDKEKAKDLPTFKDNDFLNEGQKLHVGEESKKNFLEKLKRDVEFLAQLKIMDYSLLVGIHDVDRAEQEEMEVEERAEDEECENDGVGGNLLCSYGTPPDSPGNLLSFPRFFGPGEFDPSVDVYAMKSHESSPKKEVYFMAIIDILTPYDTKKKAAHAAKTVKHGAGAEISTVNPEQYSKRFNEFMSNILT

Chain of Interferon-induced, double-stranded RNA-activated protein kinase (Homo sapiens) (P19525 whole entry): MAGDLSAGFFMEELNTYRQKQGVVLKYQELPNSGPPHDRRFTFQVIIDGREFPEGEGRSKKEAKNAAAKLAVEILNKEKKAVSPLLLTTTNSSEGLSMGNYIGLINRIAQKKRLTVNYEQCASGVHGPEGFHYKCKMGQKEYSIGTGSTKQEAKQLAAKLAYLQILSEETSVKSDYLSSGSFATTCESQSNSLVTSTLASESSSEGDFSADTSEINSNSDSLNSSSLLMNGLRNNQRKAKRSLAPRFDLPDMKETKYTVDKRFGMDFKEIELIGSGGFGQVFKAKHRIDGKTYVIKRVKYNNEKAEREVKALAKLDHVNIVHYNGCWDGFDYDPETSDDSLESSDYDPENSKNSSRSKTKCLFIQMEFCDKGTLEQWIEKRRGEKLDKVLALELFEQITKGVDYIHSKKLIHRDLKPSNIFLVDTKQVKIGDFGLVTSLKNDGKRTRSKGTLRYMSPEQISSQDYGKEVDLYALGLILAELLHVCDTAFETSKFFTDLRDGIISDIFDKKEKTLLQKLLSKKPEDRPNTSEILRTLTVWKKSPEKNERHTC
Chain of Calcium/calmodulin-dependent protein kinase type II subunit gamma (Homo sapiens) (Q13555 whole entry): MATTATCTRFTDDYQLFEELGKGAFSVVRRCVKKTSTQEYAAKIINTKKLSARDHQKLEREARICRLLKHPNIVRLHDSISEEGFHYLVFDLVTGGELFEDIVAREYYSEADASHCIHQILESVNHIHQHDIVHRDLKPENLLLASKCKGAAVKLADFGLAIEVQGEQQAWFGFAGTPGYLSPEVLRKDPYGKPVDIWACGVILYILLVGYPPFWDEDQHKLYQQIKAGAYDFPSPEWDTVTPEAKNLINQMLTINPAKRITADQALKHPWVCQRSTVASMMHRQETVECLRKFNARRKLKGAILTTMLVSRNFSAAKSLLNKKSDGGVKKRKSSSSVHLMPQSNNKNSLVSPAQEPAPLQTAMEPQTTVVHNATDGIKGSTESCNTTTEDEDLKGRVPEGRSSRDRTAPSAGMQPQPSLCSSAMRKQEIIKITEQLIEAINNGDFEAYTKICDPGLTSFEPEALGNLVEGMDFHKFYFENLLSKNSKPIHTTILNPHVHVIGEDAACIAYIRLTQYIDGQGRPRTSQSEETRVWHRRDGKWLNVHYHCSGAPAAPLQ
Chain of eIF-2-alpha kinase GCN2 (Homo sapiens) (Q9P2K8 whole entry, the tested form may be a part): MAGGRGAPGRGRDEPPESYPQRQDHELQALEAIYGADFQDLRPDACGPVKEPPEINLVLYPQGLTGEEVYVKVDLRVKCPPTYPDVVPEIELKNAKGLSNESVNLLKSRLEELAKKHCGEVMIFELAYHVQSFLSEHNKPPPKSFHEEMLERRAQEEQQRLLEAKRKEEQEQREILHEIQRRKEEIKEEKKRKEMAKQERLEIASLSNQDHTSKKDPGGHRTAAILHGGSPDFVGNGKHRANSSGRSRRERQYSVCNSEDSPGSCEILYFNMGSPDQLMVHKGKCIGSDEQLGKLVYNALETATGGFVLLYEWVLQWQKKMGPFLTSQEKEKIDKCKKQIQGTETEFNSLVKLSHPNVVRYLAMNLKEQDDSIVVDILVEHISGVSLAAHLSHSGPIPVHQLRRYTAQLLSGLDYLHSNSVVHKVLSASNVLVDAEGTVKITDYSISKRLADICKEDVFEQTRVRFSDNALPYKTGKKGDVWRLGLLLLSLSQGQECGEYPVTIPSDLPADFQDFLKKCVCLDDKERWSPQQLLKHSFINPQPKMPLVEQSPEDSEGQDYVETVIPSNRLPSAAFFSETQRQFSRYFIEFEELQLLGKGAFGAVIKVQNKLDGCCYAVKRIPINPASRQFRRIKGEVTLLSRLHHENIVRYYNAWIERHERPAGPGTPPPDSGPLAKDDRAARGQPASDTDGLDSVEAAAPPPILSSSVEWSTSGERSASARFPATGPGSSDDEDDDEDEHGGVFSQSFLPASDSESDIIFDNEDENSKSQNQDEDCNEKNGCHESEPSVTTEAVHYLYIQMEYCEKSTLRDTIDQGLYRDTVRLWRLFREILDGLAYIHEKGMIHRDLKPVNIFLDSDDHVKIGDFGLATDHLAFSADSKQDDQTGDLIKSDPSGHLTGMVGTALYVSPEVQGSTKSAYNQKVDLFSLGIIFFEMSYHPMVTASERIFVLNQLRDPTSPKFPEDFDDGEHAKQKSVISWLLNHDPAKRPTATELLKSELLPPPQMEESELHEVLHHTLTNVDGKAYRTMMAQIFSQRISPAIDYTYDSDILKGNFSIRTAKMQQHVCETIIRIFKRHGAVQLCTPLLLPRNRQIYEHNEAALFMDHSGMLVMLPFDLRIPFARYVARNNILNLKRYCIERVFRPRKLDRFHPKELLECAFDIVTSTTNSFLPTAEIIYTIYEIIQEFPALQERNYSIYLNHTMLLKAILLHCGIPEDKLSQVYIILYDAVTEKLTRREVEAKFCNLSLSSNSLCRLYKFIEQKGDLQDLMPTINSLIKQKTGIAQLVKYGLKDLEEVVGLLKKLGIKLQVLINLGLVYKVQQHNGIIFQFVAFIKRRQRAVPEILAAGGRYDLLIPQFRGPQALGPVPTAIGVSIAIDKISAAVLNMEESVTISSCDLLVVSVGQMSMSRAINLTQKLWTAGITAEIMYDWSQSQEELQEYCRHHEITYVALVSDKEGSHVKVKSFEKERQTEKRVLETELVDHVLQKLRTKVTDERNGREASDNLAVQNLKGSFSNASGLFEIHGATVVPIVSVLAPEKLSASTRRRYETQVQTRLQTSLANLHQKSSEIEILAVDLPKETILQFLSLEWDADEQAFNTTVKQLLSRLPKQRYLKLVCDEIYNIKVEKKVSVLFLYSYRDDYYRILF
Chain of Casein kinase I isoform alpha-like (Homo sapiens) (Q8N752 whole entry, canonical isoform): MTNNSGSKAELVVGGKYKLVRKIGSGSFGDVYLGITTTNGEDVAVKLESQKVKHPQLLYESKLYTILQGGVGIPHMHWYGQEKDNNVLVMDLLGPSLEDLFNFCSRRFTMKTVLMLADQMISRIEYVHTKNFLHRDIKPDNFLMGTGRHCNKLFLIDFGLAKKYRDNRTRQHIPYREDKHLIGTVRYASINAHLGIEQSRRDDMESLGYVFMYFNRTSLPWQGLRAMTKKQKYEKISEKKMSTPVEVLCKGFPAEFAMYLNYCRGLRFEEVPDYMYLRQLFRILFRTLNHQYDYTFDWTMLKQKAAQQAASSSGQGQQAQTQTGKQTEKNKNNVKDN
Chain of Muscle, skeletal receptor tyrosine-protein kinase (Homo sapiens) (O15146 whole entry): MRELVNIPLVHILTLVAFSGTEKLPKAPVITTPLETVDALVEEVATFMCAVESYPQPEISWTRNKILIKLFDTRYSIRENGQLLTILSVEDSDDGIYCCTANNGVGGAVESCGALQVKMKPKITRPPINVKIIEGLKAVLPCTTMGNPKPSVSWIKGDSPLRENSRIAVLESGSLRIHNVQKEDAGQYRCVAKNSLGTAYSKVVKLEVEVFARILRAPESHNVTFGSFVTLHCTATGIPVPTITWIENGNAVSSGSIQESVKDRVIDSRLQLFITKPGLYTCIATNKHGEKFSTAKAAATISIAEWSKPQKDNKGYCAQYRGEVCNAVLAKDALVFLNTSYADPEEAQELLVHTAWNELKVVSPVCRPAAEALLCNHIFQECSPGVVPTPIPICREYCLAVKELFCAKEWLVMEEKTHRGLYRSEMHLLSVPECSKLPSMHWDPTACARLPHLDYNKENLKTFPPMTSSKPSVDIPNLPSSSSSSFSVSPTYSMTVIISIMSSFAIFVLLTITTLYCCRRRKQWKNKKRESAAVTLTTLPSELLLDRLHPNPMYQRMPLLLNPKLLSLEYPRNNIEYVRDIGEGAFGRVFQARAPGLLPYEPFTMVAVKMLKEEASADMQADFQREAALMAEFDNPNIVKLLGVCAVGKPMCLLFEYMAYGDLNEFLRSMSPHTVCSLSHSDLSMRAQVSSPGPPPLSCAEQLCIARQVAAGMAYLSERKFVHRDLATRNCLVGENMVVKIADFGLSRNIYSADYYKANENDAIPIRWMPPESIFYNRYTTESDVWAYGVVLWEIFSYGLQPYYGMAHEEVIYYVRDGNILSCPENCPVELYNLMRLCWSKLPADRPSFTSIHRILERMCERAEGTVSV
Chain of Serine/threonine-protein kinase ULK2 (Homo sapiens) (Q8IYT8 whole entry): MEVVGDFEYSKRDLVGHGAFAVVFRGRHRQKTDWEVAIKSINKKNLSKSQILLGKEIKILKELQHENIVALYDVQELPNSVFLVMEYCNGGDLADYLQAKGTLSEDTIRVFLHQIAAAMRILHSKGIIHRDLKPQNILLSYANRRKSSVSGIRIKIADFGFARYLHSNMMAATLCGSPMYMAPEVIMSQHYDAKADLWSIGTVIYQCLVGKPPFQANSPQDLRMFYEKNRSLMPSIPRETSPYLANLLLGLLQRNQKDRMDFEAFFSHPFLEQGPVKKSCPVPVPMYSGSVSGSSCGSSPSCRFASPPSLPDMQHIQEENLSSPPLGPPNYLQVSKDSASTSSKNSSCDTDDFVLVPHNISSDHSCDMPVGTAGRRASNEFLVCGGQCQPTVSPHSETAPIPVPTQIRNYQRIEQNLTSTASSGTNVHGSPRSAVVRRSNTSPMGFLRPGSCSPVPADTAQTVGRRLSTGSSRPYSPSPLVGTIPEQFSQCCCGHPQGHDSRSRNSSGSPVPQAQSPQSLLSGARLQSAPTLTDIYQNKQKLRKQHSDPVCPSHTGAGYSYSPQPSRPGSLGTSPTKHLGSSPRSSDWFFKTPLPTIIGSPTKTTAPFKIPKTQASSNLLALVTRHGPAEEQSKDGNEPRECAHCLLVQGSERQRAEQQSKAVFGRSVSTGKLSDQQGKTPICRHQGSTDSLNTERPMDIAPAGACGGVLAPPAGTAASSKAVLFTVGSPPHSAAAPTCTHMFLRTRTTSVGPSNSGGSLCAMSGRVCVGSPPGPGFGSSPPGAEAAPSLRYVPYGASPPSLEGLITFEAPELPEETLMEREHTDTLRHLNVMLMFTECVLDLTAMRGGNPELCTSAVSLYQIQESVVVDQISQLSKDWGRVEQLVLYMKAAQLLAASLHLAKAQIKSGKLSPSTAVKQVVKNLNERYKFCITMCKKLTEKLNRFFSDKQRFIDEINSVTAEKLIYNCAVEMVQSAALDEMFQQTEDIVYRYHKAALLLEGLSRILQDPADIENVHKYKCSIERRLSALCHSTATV

Question: CCN1CCN(Cc2ccc(NC(=O)c3ccc(C)c(Oc4ccnc5[nH]ccc45)c3)cc2C(F)(F)F)CC1 was tested. Which inhibition [1] did it give?
Answer: inactive

Question: What about the inhibition [2] of the same compound?
Answer: inactive

Question: What about the inhibition [3] of the same compound?
Answer: inactive

Question: What about the inhibition [4] of the same compound?
Answer: inactive

Question: And the inhibition [5]?
Answer: > 99.5%

Question: And the inhibition [6]?
Answer: 17.4%

Question: What about the inhibition [7] of the same compound?
Answer: -8.1%

Question: What about the inhibition [8] of the same compound?
Answer: 40.8%

Question: What about the inhibition [9] of the same compound?
Answer: 1.3%

Question: And the % of control [10]?
Answer: 0.2%

Question: With CCN1CCN(Cc2ccc(NC(=O)c3ccc(C)c(/C=C/c4cnc5[nH]ccc5c4OC)c3)cc2C(F)(F)F)CC1 as the compound, how does the inhibition [11] read?
Answer: 28.7%

Question: And the inhibition [12]?
Answer: -0.9%

Question: Which inhibition [13] does the source give for CNc1cc(Oc2cc(C(=O)Nc3cc(N4CCN(C)CC4)cc(C(F)(F)F)c3)ccc2C)ncn1 here?
Answer: -5.4%
